Test results as given in paper PMC7506137, “Selective Phosphodiesterase 1 Inhibitor BTTQ Reduces Blood Pressure in Spontaneously Hypertensive and Dahl Salt Sensitive Rats: Role of Peripheral Vasodilation” (Frontiers in Physiology, 2020).
Where two headings read alike, the source gives them in different places.

Tests used:
Rat PDE1B = target: T1, Rat PDE1B (Rattus norvegicus, UniProt Q01066); assay: PDE scintillation proximity enzyme assay; format: biochemical
T1 construct: made in house; host or cells: baculovirus-infected insect cells
T1 sequence (Q01066 1-535): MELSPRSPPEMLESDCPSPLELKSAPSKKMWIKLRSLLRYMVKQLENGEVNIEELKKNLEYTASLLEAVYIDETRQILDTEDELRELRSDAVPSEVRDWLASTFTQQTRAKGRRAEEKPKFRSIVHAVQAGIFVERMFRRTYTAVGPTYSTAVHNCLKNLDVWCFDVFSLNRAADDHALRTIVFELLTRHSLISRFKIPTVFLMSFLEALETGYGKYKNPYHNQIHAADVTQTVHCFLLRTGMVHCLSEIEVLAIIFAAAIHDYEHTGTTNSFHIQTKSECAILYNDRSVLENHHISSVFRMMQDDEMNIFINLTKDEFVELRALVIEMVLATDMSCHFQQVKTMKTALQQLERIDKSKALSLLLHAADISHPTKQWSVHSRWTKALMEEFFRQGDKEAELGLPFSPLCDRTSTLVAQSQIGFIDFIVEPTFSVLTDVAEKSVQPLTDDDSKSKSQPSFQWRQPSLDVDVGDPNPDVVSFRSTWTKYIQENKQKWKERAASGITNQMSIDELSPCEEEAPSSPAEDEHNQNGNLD
Method: (§1) All PDE enzyme activities were measured with a yittrium silicate based scintillation proximity assay that detects radioactive nucleotide monophosphates but not cyclic monophosphates. Assays are conducted in a total volume of 50 μl in 384 well plates (3706, Corning): comprised of 24 μl enzyme, 1 μl compound, and 25 μl of cyclic nucleotide. The general assay buffer consists of 50 mM Tris-HCl (pH 7.5) and 0.1% (w/v) bovine serum albumin (Fatty Acid Free, Sigma-Aldrich). Enzyme concentrations, substrate concentrations, and various PDE-specific buffer additives are described in Supplementary Table 1. Compounds to be tested are diluted in pure dimethyl sulfoxide (DMSO) using 10-point concentration-response curves, and 1 μl is acoustically dispensed into assay plates using the Echo555 (LabCyte). Maximal compound concentration in the reaction mixture is either 10 or 100 μM. Compounds at the appropriate concentration are pre-incubated with either of the PDE enzymes for 30 min before the reaction is started by the addition of substrate ([8-^3H]-cAMP, 20.7 Ci/mmol or [8-^3H]-cGMP; 6.5 Ci/mmol, Perkin Elmer). Reactions are allowed to proceed for 60 min at room temperature before quenching. Next, reactions are stopped by the addition of 400 μg/per well SPA beads (RPNQ0150, Perkin Elmer) and a potent non-selective PDE inhibitor to quench the reaction. Bead bound radioactivity (product) is quantified 12 h later a Microbeta counter (Perkin Elmer). Data is normalized to % inhibition using standard methods ([Campbell et al., 2004]), and IC50 values were plotted using PRISM (GraphPad Software) using the 4 parameter logistic equation ([Campbell et al., 2004]). Data for potency values are expressed as the geometric mean and arithmetic standard deviation.

Rat PDE3A = target: T2, Rat PDE3A (Rattus norvegicus, UniProt Q62865); assay: PDE scintillation proximity enzyme assay; format: biochemical
T2 construct: made in house; host or cells: baculovirus-infected insect cells
T2 sequence (Q62865 1-1141): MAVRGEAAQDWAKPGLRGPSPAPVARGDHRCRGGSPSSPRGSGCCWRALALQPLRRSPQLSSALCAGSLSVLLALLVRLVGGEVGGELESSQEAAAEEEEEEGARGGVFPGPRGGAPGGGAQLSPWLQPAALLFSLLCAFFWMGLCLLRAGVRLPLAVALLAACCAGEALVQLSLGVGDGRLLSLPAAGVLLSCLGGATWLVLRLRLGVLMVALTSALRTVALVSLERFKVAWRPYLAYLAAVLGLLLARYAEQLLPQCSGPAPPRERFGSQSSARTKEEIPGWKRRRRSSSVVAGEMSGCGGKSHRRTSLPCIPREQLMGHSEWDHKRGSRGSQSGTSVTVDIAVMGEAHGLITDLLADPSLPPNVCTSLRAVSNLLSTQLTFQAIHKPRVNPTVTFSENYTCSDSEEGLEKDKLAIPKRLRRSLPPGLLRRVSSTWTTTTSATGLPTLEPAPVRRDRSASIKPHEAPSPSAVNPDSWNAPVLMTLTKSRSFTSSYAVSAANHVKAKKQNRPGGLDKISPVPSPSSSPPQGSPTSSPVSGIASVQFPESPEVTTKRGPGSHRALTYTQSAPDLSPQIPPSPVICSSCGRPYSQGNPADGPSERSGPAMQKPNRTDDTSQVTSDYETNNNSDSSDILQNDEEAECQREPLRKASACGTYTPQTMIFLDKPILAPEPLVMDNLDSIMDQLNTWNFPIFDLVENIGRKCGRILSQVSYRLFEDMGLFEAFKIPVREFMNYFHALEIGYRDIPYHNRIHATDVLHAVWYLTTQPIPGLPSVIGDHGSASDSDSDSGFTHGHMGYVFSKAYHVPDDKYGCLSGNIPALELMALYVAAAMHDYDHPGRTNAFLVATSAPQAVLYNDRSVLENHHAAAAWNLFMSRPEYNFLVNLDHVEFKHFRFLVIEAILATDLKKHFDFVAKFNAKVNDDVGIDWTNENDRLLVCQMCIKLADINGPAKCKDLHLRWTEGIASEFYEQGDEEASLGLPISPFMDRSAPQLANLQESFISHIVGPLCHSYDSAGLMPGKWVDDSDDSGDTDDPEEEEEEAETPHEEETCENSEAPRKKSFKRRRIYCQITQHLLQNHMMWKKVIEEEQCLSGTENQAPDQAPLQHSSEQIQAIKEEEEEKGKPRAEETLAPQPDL
Method: as §1

[1] = tested on: mesenteric arteries from Dahl SS rats; assay: Myography in isolated mesenteric arteries; design: species or system Rat
Text: For studies of the mesenteric arteries, rats were anesthetized using 5% isoflurane gas followed by euthanasia by secondary method. Small mesenteric arteries (∼300-μm internal diameter, 350-μm external diameter) supplying the small intestine were carefully excised under a dissecting microscope (Leica; Buffalo, NY, United States) and immersed in a cold physiological salt solution having the following ionic composition (in mM): NaCl (119.0), KCl (4.7), CaCl2 (1.6), NaH2PO4 (1.18), MgSO4 (1.17), NaHCO3 (24.0), D-glucose (5.5), and EDTA (0.03). The arteries were cannulated at the proximal and distal ends using glass micropipettes. The vessels were equilibrated with a 21% O2, 5% CO2, 74% N2 gas mixture at 37°C in the physiological salt solution for 30 min. The intraluminal pressure was maintained at 80 mmHg to approximate in vivo conditions, and the internal diameter of the artery was measured using television microscopy. Responses to vasodilator stimuli (different BTTQ concentrations) were determined in arteries precontracted with 10 μM phenylephrine (PE) and expressed as % increase from basal (PE-precontracted) diameter. Responses of the mesenteric arteries to the endothelium-dependent vasodilator agonist acetylcholine (ACh) were evaluated in SS rats fed a high salt diet (4% NaCl) for 3 weeks and treated with BTTQ (3 mg/kg) p.o. gavage twice daily or vehicle.

`O=c1c2nnc(C3(C4CC4)CC3)n2c2c(n1CC1CC1)CCCC2` [BTTQ, 1-[1,1′-bi(cyclopropyl)-1-yl]-5-(cyclopropylmethyl)-6,7,8,9-tetrahydro[1,2,4]triazolo[4,3-A]quinoxaline-4(5H)-one] was tested, and the IC50 (Rat PDE1B) was 1 nM, the IC50 (Rat PDE3A) was “inactive” and the IC50 (Rat PDE3A; read-out: IC50) was over 100000 nM. For the same compound, the “relaxation, % of the initial fully relaxed diameter” value ([1]; 1 mM, arteries pre-constricted with 10 μM phenylephrine) was “about 92%”, the “acetylcholine-induced vasorelaxation, treated vs vehicle group” value ([1]; arteries from Dahl SS rats treated by oral gavage (3 mg/kg twice daily), high salt diet 21 days) was “no significant difference” and the “relaxation of mesenteric arteries compared to the vehicle” value ([1]; escalating concentrations, pre-constricted with 10 μM phenylephrine) was “concentration-dependent relaxation”.
